Earlier results, collected in US8884020B2, “Indole compounds” (Ironwood Pharmaceuticals, Inc., priority 2006, dated 2014).

Test system: prostaglandin synthesis
Details: Shen et al. 1977

SMILES: Cc1c(CC(=O)O)c2cc(O)ccc2n1C(=O)c1ccc(Cl)cc1 [desmethyl metabolite, (1-(4-chlorobenzoyl)-5-hydroxy-2-methyl-1H-indol-3-yl]acetic acid]
- ability to inhibit prostaglandin synthesis: some ability to inhibit prostaglandin synthesis
